What all share (assay type): toxicity, cell-based
For data set [1], the system named is HEK-293T. Kind of data set: Incucyte cell viability with HEK293T. The settings on record: human, 10 µM, compound concentration 10 uM.
Data set [2] concerns Fibroblast. Kind of data set: Incucyte cell viability with human fibroblast. The settings on record: 10 µM, compound concentration 10 uM.
For data set [3], the system named is U2OS. As to the kind of experiment: Incucyte cell viability with U2OS. The settings on record: human, 10 µM, compound concentration 10 uM.
[4] abbreviates: 0 h, replicate number 1, timepoint 0 hours.
[5] abbreviates: 0 h, replicate number 2, timepoint 0 hours.
Setting [6] is: 18 h, replicate number 1, timepoint 18 hours.
[7] abbreviates: 24 h, replicate number 1, timepoint 24 hours.
The mark [8] stands for this setting: 12 h, replicate number 2, timepoint 12 hours.
Where [9] appears, read: 6 h, replicate number 2, timepoint 6 hours.
[10] abbreviates: 18 h, replicate number 2, timepoint 18 hours.
Where [11] appears, read: 24 h, replicate number 2, timepoint 24 hours.
The mark [12] stands for this setting: 6 h, replicate number 1, timepoint 6 hours.
The mark [13] stands for this setting: 12 h, replicate number 1, timepoint 12 hours.
Note: unitless GR value; below 1 slowed growth and below 0 cell loss.

In the case of `CSCC[C@H](NC(=O)[C@@H]1CCCN1C(=O)CNC(=O)[C@H](CCCCN)NC(=O)[C@H](Cc1cnc[nH]1)NC(=O)[C@H](CO)NC(=O)[C@H](CC(C)C)NC(=O)[C@H](CCCNC(=N)N)NC(=O)[C@@H]1CCCN1C(=O)[C@H](CCCNC(=N)N)NC(=O)[C@@H](N)CCC(N)=O)C(=O)N1CCC[C@H]1C(=O)N[C@@H](Cc1ccccc1)C(=O)O`, the “Growth Rate” value in data set [1] (setting [4]) was 0.46; in data set [1] (setting [5]), 0.65; in data set [1] (setting [6]), 0.97; in data set [1] (setting [7]), 0.74; in data set [2] (setting [4]), 0.13; in data set [2] (setting [5]), 0.64. Besides, the “Growth Rate” value is 0.8 in data set [2] (setting [8]); 0.88 in data set [2] (setting [7]); -0.88 in data set [3] (setting [5]); 0.73 in data set [3] (setting [9]); 0.91 in data set [3] (setting [10]); 0.94 in data set [3] (setting [11]).
As for `Cc1cccc(NC(=O)CN2CCC(c3ccccn3)CC2)c1.Cl.Cl`, the “Growth Rate” value in data set [1] (setting [12]) is recorded as 0.47; in data set [1] (setting [9]), 0.66; in data set [1] (setting [13]), 0.79; in data set [1] (setting [8]) it was 0.97; in data set [1] (setting [10]), 0.98; in data set [2] (setting [5]) it was 0.72. For the same compound, the “Growth Rate” value is 0.02 in data set [2] (setting [12]); 0.19 in data set [2] (setting [13]); 0.48 in data set [2] (setting [6]); 0.77 in data set [2] (setting [7]); -1 in data set [3] (setting [5]).
On to `CC(F)(F)CN1CCOc2c(nn(-c3ccccc3Cl)c2-c2ccc(Cl)cc2)C1=O`, for which the “Growth Rate” value in data set [1] (setting [8]) was 0.82; in data set [2] (setting [12]) it was -0.37; in data set [2] (setting [9]), 0.94; in data set [2] (setting [13]) it was 0.01; in data set [2] (setting [8]), 0.22; in data set [2] (setting [6]), -0.21. For the same compound, the “Growth Rate” value is 0.75 in data set [2] (setting [10]), -0.09 in data set [2] (setting [7]), 0.06 in data set [2] (setting [11]) and -1 in data set [3] (setting [5]).
Regarding `C[C@@H]1CC(=O)Nc2cccc(-c3ccc4c(c3)c(-c3cnn(C)c3)nn4C)c2N1`, the “Growth Rate” value in data set [1] (setting [5]) is given as 0.93; in data set [1] (setting [12]), 0.14; in data set [1] (setting [9]) it was 0.26; in data set [1] (setting [13]), 0.43; in data set [1] (setting [8]) it was 0.42; in data set [1] (setting [6]) it was 0.41. Besides, the “Growth Rate” value is 0.45 in data set [1] (setting [10]); 0.38 in data set [1] (setting [7]); 0.43 in data set [1] (setting [11]); 0.21 in data set [2] (setting [12]); -0.4 in data set [3] (setting [4]); 0.24 in data set [3] (setting [12]). Besides, the results for the “Growth Rate” value in data set [3] (setting [13]), in data set [3] (setting [6]) and in data set [3] (setting [7]) were 0.53, 0.7 and 0.85, respectively.
Consider `Cc1cc(Cn2nnc3c(-c4ccco4)nc(N)nc32)ccc1N` [VIPADENANT], for which the “Growth Rate” value in data set [1] (setting [4]) is given as 0.37; in data set [1] (setting [5]), 0.5; in data set [1] (setting [9]), 0.84; in data set [1] (setting [8]), 0.95; in data set [2] (setting [4]), 0.03; in data set [2] (setting [5]), 0.35. Besides, the “Growth Rate” value in data set [2] (setting [12]) is reported as 0.45; in data set [2] (setting [13]), 0.08; in data set [2] (setting [6]) it was 0.23; in data set [2] (setting [10]) it was 0.81; in data set [2] (setting [7]), 0.17; in data set [3] (setting [5]), -1. Besides, in data set [3] (setting [6]), the “Growth Rate” value turned out to be 0.79.
For `COCCN1CCC(c2cc(CN(C)C(=O)c3cccc(Oc4ccccc4)c3)ccn2)CC1`, the “Growth Rate” value in data set [1] (setting [5]) worked out at 0.76; in data set [1] (setting [12]), 0.44; in data set [1] (setting [13]), 0.83; in data set [1] (setting [8]), 0.93; in data set [1] (setting [6]), 0.81; in data set [1] (setting [10]), 0.92. Moreover, the “Growth Rate” value in data set [1] (setting [7]) is listed as 1; in data set [1] (setting [11]) it was 0.89; in data set [2] (setting [4]), 0.94; in data set [2] (setting [12]), 0.77; in data set [3] (setting [4]), -0.65; in data set [3] (setting [5]), -0.76. The “Growth Rate” value was found to be 0.63 in data set [3] (setting [12]); 0.6 in data set [3] (setting [9]); 0.74 in data set [3] (setting [13]); 0.87 in data set [3] (setting [8]); 0.67 in data set [3] (setting [6]); 0.97 in data set [3] (setting [10]). Further, the “Growth Rate” value in data set [3] (setting [7]) came to 0.93.
As for `Cc1cc(Cn2cnc3c2C[C@@H](C(=O)O)N(C(=O)C(c2ccccc2)c2ccccc2)C3)ccc1N(C)C`, the “Growth Rate” value in data set [1] (setting [12]) was 0.56; in data set [1] (setting [9]), 0.61; in data set [1] (setting [13]) it was 0.72; in data set [1] (setting [8]), 0.75; in data set [1] (setting [6]), 0.7; in data set [1] (setting [10]), 0.99. Besides, the “Growth Rate” value is 0.85 in data set [1] (setting [7]); 0.15 in data set [2] (setting [4]); 0.22 in data set [2] (setting [12]); 0.53 in data set [2] (setting [6]); 0.97 in data set [2] (setting [10]); 0.39 in data set [2] (setting [7]). In addition, the entries for the “Growth Rate” value in data set [2] (setting [11]), in data set [3] (setting [5]) and in data set [3] (setting [11]) were 0.88, 0.34 and 0.97, respectively.
As to `Cc1cc(O)c(-c2ccc([C@@H](C)CN(C)C)cc2)c2c1[nH]c(=O)c1sccc12`, the “Growth Rate” value in data set [1] (setting [12]) is listed as -0.8; in data set [1] (setting [9]) it was -0.77; in data set [1] (setting [13]), -0.64; in data set [1] (setting [8]), -0.63; in data set [1] (setting [6]), -0.48; in data set [1] (setting [10]), -0.52. Also, the “Growth Rate” value was -0.37 in data set [1] (setting [7]); -0.4 in data set [1] (setting [11]); -0.87 in data set [2] (setting [12]); -0.66 in data set [2] (setting [9]); -0.63 in data set [2] (setting [13]); -0.4 in data set [2] (setting [8]). In addition, the “Growth Rate” value is recorded as -0.6 in data set [2] (setting [6]); -0.3 in data set [2] (setting [10]); -0.36 in data set [2] (setting [7]); -0.25 in data set [2] (setting [11]); -0.17 in data set [3] (setting [4]); 1 in data set [3] (setting [5]). The “Growth Rate” value in data set [3] (setting [12]) is given as 0.74; in data set [3] (setting [9]), 0.66; in data set [3] (setting [13]), 0.65; in data set [3] (setting [8]) it was 0.31; in data set [3] (setting [6]), 0.13; in data set [3] (setting [10]) it was 0.18. The “Growth Rate” value worked out at 0.16 in data set [3] (setting [7]) and 0.09 in data set [3] (setting [11]).
On to `Cc1c(CC(=O)O)c2cccnc2n1Cc1ccc(S(C)(=O)=O)cc1C(F)(F)F` [FEVIPIPRANT], for which the “Growth Rate” value in data set [1] (setting [5]) is given as 0.79; in data set [2] (setting [4]), 0.42; in data set [2] (setting [5]), 0.97; in data set [3] (setting [4]), -0.75; in data set [3] (setting [5]), -1; in data set [3] (setting [9]) it was 0.82. The “Growth Rate” value is recorded as 0.93 in data set [3] (setting [10]) and 0.88 in data set [3] (setting [11]).
As for `Cc1ccc(C(C)(O)c2nc3ccccc3s2)c(C)c1` (centres undefined), the “Growth Rate” value was determined as 0.98 in data set [1] (setting [4]); 0.84 in data set [1] (setting [5]); 0.99 in data set [1] (setting [13]); 0.44 in data set [2] (setting [4]); 0.92 in data set [2] (setting [5]); 0.67 in data set [2] (setting [12]). Further, the “Growth Rate” value in data set [3] (setting [4]) was -0.06; in data set [3] (setting [9]), 0.88; in data set [3] (setting [6]) it was 0.99; in data set [3] (setting [10]), 0.95.
`Cc1ccccc1C(=O)Nc1ccc(C(=O)N2CCCC(N(C)C)c3ccccc32)cc1.Cl` (centres undefined): the “Growth Rate” value in data set [1] (setting [12]) is given as -0.55; in data set [1] (setting [9]) it was -0.44; in data set [1] (setting [13]), -0.32; in data set [1] (setting [8]), -0.03; in data set [1] (setting [6]), -0.11; in data set [1] (setting [10]) it was 0.08. In addition, the “Growth Rate” value in data set [1] (setting [7]) is 0.1; in data set [1] (setting [11]) it was 0.22; in data set [2] (setting [12]) it was -0.99; in data set [2] (setting [9]), -0.65; in data set [2] (setting [13]), -0.85; in data set [2] (setting [8]), -0.38. In addition, the “Growth Rate” value in data set [2] (setting [6]) is -0.63; in data set [2] (setting [10]), -0.1; in data set [2] (setting [7]) it was -0.44; in data set [2] (setting [11]), 0.07; in data set [3] (setting [4]) it was 0.36; in data set [3] (setting [12]), 0.05. Besides, the “Growth Rate” value was -0.11 in data set [3] (setting [9]); -0.03 in data set [3] (setting [13]); -0.22 in data set [3] (setting [8]); -0.06 in data set [3] (setting [6]); -0.09 in data set [3] (setting [10]); -0.11 in data set [3] (setting [7]). In data set [3] (setting [11]), the “Growth Rate” value is reported as -0.08.
